Each block holds one compound with its values, some of them ahead of it.
Tests used:
fertilised sea urchin = fertilised sea urchin assay; background statement; cited from earlier work
lung cancer cell lines = settings: acting as a Type IV microtubule poison; background statement; cited from earlier work
P388 cell lines = settings: cell line in culture; background statement; cited from earlier work
A549 cell lines = settings: cell line in culture; background statement; cited from earlier work

Compound: COc1cc(-c2c3n(c4c(=O)oc5cc(O)c(OC)cc5c24)CCc2c-3cc(OC)c(OC)c2OC)ccc1O [Lamellarin C]
inhibition of cell division (fertilised sea urchin): inhibition of cell division

Compound: COc1ccc(-c2c3c4cc(OC)c(O)cc4oc(=O)c3n3ccc4cc(O)c(OC)cc4c23)cc1O [Lamellarin N]
activity in lung cancer cell lines (lung cancer cell lines): exhibit activity

Compound: Lamellarin I
cytotoxicity against P388 (P388 cell lines): comparable and significant cytotoxicity | cytotoxicity against A549 (A549 cell lines): comparable and significant cytotoxicity

Compound: COc1ccc(-c2c3n(c4c(=O)oc5cc(O)c(OC)cc5c24)CCc2cc(O)c(OC)cc2-3)cc1O [Lamellarin L]
cytotoxicity against P388 (P388 cell lines): comparable and significant cytotoxicity | cytotoxicity against A549 (A549 cell lines): comparable and significant cytotoxicity

Compound: COc1cc(-c2c3c4cc(OC)c(O)cc4oc(=O)c3n3ccc4cc(O)c(OC)cc4c23)ccc1O [Lamellarin D]
inhibition of cell division (fertilised sea urchin): inhibition of cell division

Compound: Lamellarin K
cytotoxicity against P388 (P388 cell lines): comparable and significant cytotoxicity | cytotoxicity against A549 (A549 cell lines): comparable and significant cytotoxicity

melting point: 292 to 294 °C
Compound: COc1cc(-c2c3n(c4c(=O)oc5cc(O)c(OC)cc5c24)CCc2cc(OC)c(OC)cc2-3)ccc1O [Compound 35, 10-Deoxylamellarin K]

From US7122673B2, “Preparation of fused polycyclic alkaloids by ring closure of azomethine ylides, novel compounds thereof and their use as chemotherapeutic agents” (The Australian National University, priority 1997, dated 2006)
